Common to all, as to format: functional
The test system of experiment [1] is Candida albicans. Nature of the experiment: Antifungal activity against Candida albicans ATCC 10231 assessed as growth inhibition at 37 degC for 48 hr. To be noted: ATCC 10231, 48 h.
Experiment [2] deals with Aspergillus fumigatus. Nature of the experiment: Antifungal activity against Aspergillus fumigatus HIC 6094 assessed as growth inhibition at 37 degC for 48 hr. To be noted: HIC 6094, 48 h.
The test system of experiment [3] is Trichophyton rubrum. Nature of the experiment: Antifungal activity against Trichophyton rubrum IFO 9185 assessed as growth inhibition at 37 degC for 48 hr. The following applies: IFO 9185, 48 h.
The subject of experiment [4] is Candida albicans. Nature of the experiment: Antifungal activity against Candida albicans ATCC 10231 assessed as growth inhibition at 100 ug/disk at 37 degC for 48 hr. The following applies: ATCC 10231, 48 h, read-out: IZ.
Experiment [5] concerns Trichophyton rubrum. Nature of the experiment: Antifungal activity against Trichophyton rubrum IFO 9185 assessed as growth inhibition at 100 ug/disk at 37 degC for 48 hr. The following applies: IFO 9185, 48 h, read-out: IZ.
The subject of experiment [6] is Aspergillus fumigatus. Nature of the experiment: Antifungal activity against Aspergillus fumigatus HIC 6094 assessed as growth inhibition at 100 ug/disc at 37 degC for 48 hr. To be noted: HIC 6094, 48 h, read-out: IZ.
The subject of experiment [7] is Trichophyton mentagrophytes. Description: Antifungal activity against Trichophyton mentagrophytes IFO 40996 assessed as growth inhibition at 100 ug/disc at 37 degC for 48 hr. To be noted: IFO 40996, 48 h, read-out: IZ.
Experiment [8] concerns Trichophyton mentagrophytes. Nature of the experiment: Antifungal activity against Trichophyton mentagrophytes IFO 40996 assessed as growth inhibition at 37 degC for 48 hr. The following applies: IFO 40996, 48 h.

In brackets after ≈: the same amount, converted by molar mass.

Regarding `C[C@@H]1[C@H](O)[C@@H](C)/C=C/C=C/C=C/C=C/C=C/C=C/C=C/[C@H](O[C@@H]2O[C@H](C)[C@@H](O)[C@H](N)[C@@H]2O)C[C@@H]2O[C@](O)(C[C@@H](O)C[C@@H](O)[C@H](O)CC[C@@H](O)C[C@@H](O)CC(=O)O[C@H]1C)C[C@H](O)[C@H]2C(=O)O` [AMPHOTERICIN B], the MBC turned out to be 12.5 µg/mL (≈ 13.5 µM) in the experiment on Candida albicans [1], 6.25 µg/mL (≈ 6.76 µM) in the experiment with Aspergillus fumigatus [2], 12.5 µg/mL (≈ 13.5 µM) in the experiment with Trichophyton rubrum [3] and 12.5 µg/mL (≈ 13.5 µM) in experiment [8]. Besides, the minimal inhibitory concentration (MIC) (usually the smallest concentration in the dilution series that meets the test's criterion for growth inhibition) with Candida albicans [1] was 6.25 µg/mL (≈ 6.76 µM); in the experiment with Aspergillus fumigatus [2], 3.12 µg/mL (≈ 3.38 µM); in the experiment with Trichophyton rubrum [3], 3.12 µg/mL (≈ 3.38 µM); in experiment [8] it was 3.12 µg/mL (≈ 3.38 µM). The zone of inhibition at 100 µg/disc in the experiment on Candida albicans [4] was found to be 25 mm; in the experiment with Trichophyton rubrum [5] it was 20 mm; with Aspergillus fumigatus [6] it was 20 mm; in experiment [7], 18 mm.

For the origin of these results see ChEMBL document CHEMBL3045223, “Synthesis, nematicidal and antimicrobial properties of Bis-[4-methoxy-3-[3-(4-fluorophenyl)-6-(4-methylphenyl)-2(aryl)-tetrahydro-2H-pyrazolo[3,4-d]thiazol-5-yl]phenyl]methanes” (2009).
